Paper PMC9356039, “Multifunctional synthetic nano-chaperone for peptide folding and intracellular delivery” (Nature Communications, 2022)

Experiments:
[1] = tested on: MDM2 in HepG2 cells; assay: Western blot, MDM2 protein level; format: cell-based, human
Protocol: (§1) Cells were lysed with Pro-PREP (IntronBio, Korea) according to the manufacturer’s protocol. The samples were centrifuged at 2000 × g and 4 °C for 15 min. The supernatant was collected to a 1.5 mL ep-tube and stored at −80 °C. After protein quantification using Pierce^TM BCA assay kit (Thermo Fisher Scientific, USA), the same amount of protein was diluted in water containing 5×loading buffer (Biosesang, Korea) and loaded on SDS-PAGE gel (Bio-rad, USA). After electrophoresis in Tris-Glycine SDS buffer at 80 V for 120 min, proteins in a gel were transferred to a nitrocellulose membrane (0.45 μm, Bio-rad, USA) in 1× Tris-Glycine Native Buffer (GenDEPOT, Korea) with 10% methanol at 90 V, and 4 °C for 90 min under stirring condition. The membrane was blocked with 5% milk to inhibit non-specific binding and immersed overnight at 4 °C in the presence of primary antibodies; GAPDH (1:2000, Abcam, USA), p53 (1:1000, Cell signaling, USA), MDM2 (1:1000, Cell signaling, USA), Bcl2 (1:1000, Cell signaling, USA) and CytC (1:1000, Cell signaling, USA). Anti-rabbit goat pAb, horseradish peroxidase (HRP)-linked antibody (1:5000, Abcam, USA) was used as a secondary antibody and the membrane was incubated for 1 h. After the reaction with the detection agent West Pico PLUS (Thermo Fisher Scientific, USA), bands of protein were monitored by a ImageQuant^TM LAS 4000 mini (GE Healthcare, USA). […]

[2] = tested on: human liver cancer (HepG2) xenograft; assay: Tumor growth inhibition, intratumoral injection; format: in vivo, Balb/c male nude mice; conditions: HepG2 xenograft mice; intratumoral every 3 days, 14 days; 50 mg SNCP8/kg, 5 μmole st-p53pep/kg; n = 3; versus untreated control
Protocol: All of animal experiments were conducted in accordance with the Institutional Animal Care and Use Committees (IACUC) of Seoul National University. 5-week old Balb/c male nude mice were purchased (ORIENT BIO, Korea). Mice were housed in an environmentally controlled room (23 °C, with 55 ± 5% humidity and 12 h / 12 h light–dark cycle). To prepare tumor-bearing mice, a suspension of the HepG2 cells (6 × 10^6 cells) in 100 µL of sterilized PBS was subcutaneously injected (n = 3, biologically independent animals). Tumor-bearing mice were reared until the tumor volumes reach ~50 mm^3 and used for experiments. […] The changes in tumor volume and body weight were monitored over 14 days. Tumor volumes were calculated by using the equation of 1/2 × length × (width)^2, where the length and width are the longest and shortest diameters (mm) of the tumor, respectively. […] Bright field and fluorescence images from mice were obtained overtime for 3 days by using fluorescence in vivo imaging system, FoBI (Neoscience, Korea). The relative intensity of FAM fluorescence attached to st-p53pep was calculated by using the region of interest (ROI) analysis. The half-life of FAM fluorescence decay was determined by exponential curve fitting method with Origin 2017 (OriginLab, USA).

[3] = Whole-body FAM fluorescence decay in tumor after intratumoral injection; format: in vivo, Balb/c male nude mice; conditions: for rel. fluor. Int. (FAM): tumor ROI
Protocol: All of animal experiments were conducted in accordance with the Institutional Animal Care and Use Committees (IACUC) of Seoul National University. 5-week old Balb/c male nude mice were purchased (ORIENT BIO, Korea). Mice were housed in an environmentally controlled room (23 °C, with 55 ± 5% humidity and 12 h / 12 h light–dark cycle). To prepare tumor-bearing mice, a suspension of the HepG2 cells (6 × 10^6 cells) in 100 µL of sterilized PBS was subcutaneously injected (n = 3, biologically independent animals). Tumor-bearing mice were reared until the tumor volumes reach ~50 mm^3 and used for experiments. To investigate tumor growth inhibition efficiency, SNCP8@st-p53pep, SNCP8, and st-p53pep alone in 100 μL of PBS solution (50 mg SNCP8/kg, 5 μmole st-p53pep/kg) were directly injected into the tumor. The same volume of PBS solution was also directly treated into the tumor as a control. Intratumoral injection was performed at 3 day intervals. The changes in tumor volume and body weight were monitored over 14 days. Tumor volumes were calculated by using the equation of 1/2 × length × (width)^2, where the length and width are the longest and shortest diameters (mm) of the tumor, respectively. The relative tumor volume was derived from comparing it with the initial tumor volume. To observe sustainability and tumor exposure of st-p53pep in vivo, we used nude mice with HeLa and HepG2 cell xenografts prepared in the same manner as the tumor growth inhibition experiment. TAMRA-labeled SNCP8@ FAM-labeled st-p53pep was treated in the same manner as the tumor growth inhibition experiment instead of SNCP8@st-p53pep. Bright field and fluorescence images from mice were obtained overtime for 3 days by using fluorescence in vivo imaging system, FoBI (Neoscience, Korea). The relative intensity of FAM fluorescence attached to st-p53pep was calculated by using the region of interest (ROI) analysis. The half-life of FAM fluorescence decay was determined by exponential curve fitting method with Origin 2017 (OriginLab, USA).

[4] = Water solubility (in words); format: physicochemical
[5] = tested on: p53 in HepG2 cells; assay: Western blot, p53 protein level; format: cell-based, human
Protocol: as §1

[6] = tested on: Bcl2 in HepG2 cells; assay: Western blot, Bcl2 protein level; format: cell-based, human
Protocol: as §1

[7] = tested on: HepG2 cells; assay: CCK-8 cell viability; format: cell-based, human; conditions: 24 h, 50
Protocol: Human liver cancer cell line HepG2 were grown in DMEM containing 10% FBS and 1% penicillin/streptomycin at 37 °C in a humidified atmosphere of 5% CO2. HepG2 cells (1.2 × 10^5 cells/well) were seeded in a 4-well glass plate for 24 h. Then, SNCPs@st-p53pep (0.02 mg/mL) and st-p53pep alone (2 μM) were added to each well in a serum-free medium for 4 h. After incubation, the cells were carefully rinsed with PBS, and the medium was replaced with a serum-containing fresh medium. After the nucleus was stained with Hoechst 33342 staining kit by manufacturer’s protocol, bright field and fluorescence images were obtained by using a DeltaVision Elite Microscopy System (GE Healthcare, USA). To observe the distribution of SNCP8 and st-p53pep in cells, TAMRA-labeled SNCP8@FAM-labeled st-p53pep (0.25 mg/mL) was treated in the same manner instead of SNCP8@st-p53pep. And then, the Mander’s overlap coefficient (MOC) was calculated in the Image J program (ver. 1.52a) via the JACoP plugin to identify co-localization between fluorescence signals over time. […] The cell viability was determined using cell counting kit-8 (CCK-8) assay by monitoring absorbance at 450 and 670 nm wavelength measured using a microplate reader (Molecular Devices, Inc., USA). The EC50 values of SNCPs@st-p53pep were determined by the logistic curve-fitting method with Origin (OriginLab, USA).

rel. fluor. Int. (FAM) ([3]; 0 hours after intratumoral injection): 70000 | rel. fluor. Int. (FAM) ([3]; 6 hours after intratumoral injection): 21050 | rel. fluor. Int. (FAM) ([3]; 12 hours after intratumoral injection): 7081 | rel. fluor. Int. (FAM) ([3]; 24 hours after intratumoral injection): 501 | rel. fluor. Int. (FAM) ([3]; 48 hours after intratumoral injection): 1 | rel. fluor. Int. (FAM) ([3]; 72 hours after intratumoral injection): 1 | time until green fluorescence signal in tumor disappeared ([3]; tumor-bearing mouse, intratumoral injection): ≤ 24 h | half-life (t1/2) of green (FAM) fluorescence decay in tumor ([3]; tumor-xenograft mice, intratumoral injection, ROI analysis of whole-body image, exponential fit): 3.5 h | solubility in water (in words) [4]: poor water solubility
Compound: CC(C)C[C@@H]1NC(=O)[C@H](CC(C)C)NC(=O)[C@H](CCCNC(=N)N)NC(=O)[C@H](Cc2c[nH]c3ccccc23)NC(=O)[C@H](CC(C)C)NC(=O)[C@H](CC(N)=O)NC(=O)[C@H](NC(=O)[C@H](Cc2ccccc2)NC(=O)[C@@H](NC(=O)[C@H](CCC(N)=O)NC(=O)[C@H](CCC(N)=O)NC(=O)[C@H](CO)NC(=O)[C@H](CCC(N)=O)NC(=O)CNC(=O)CNC(=O)c2ccc3c(c2)C(=O)OC32c3ccc(O)cc3Oc3cc(O)ccc32)[C@@H](C)O)CCCCNC(=O)CCc2cn(nn2)CCC[C@@H](C(=O)N[C@@H](CCC(N)=O)C(=O)N[C@@H](CC(N)=O)C(N)=O)NC1=O [st-p53pep]
MDM2 level relative to Control ([1]; /GAPDH, Control = 1): 0.8607 | MDM2 rel. (/GAPDH) ([1]; intensity divided by GAPDH): 0.7522 | growth of tumor volume (in words) [2]: no notable difference | p53 level relative to Control ([5]; /GAPDH, Control = 1): 1.126 | p53 rel. (/GAPDH) ([5]; intensity divided by GAPDH): 0.7745 | Bcl2 level relative to Control ([6]; /GAPDH, Control = 1): 1.005 | Bcl2 rel. (/GAPDH) ([6]; intensity divided by GAPDH): 0.9585 | cell viability at corresponding dose [7]: more than 80%
